Reference: EP3180003B1 (The Regents of the University of California, priority 2014, dated 2016)
Like-named read-outs stand apart in the source and are kept apart here. Blank lines part the entries; values can stand above or below the molecule they belong to.

What was measured:
PKCζ = target: T1, PKCζ (Homo sapiens, UniProt Q05513); assay: Inhibition of atypical PKCζ (Example 4); assay type: biochemical; conditions: for activity against atypical PKCζ: at 10 µM, result in words
T1 construct: purchased Invitrogen (Carlsbad, CA, USA)
T1 sequence (Q05513 1-592): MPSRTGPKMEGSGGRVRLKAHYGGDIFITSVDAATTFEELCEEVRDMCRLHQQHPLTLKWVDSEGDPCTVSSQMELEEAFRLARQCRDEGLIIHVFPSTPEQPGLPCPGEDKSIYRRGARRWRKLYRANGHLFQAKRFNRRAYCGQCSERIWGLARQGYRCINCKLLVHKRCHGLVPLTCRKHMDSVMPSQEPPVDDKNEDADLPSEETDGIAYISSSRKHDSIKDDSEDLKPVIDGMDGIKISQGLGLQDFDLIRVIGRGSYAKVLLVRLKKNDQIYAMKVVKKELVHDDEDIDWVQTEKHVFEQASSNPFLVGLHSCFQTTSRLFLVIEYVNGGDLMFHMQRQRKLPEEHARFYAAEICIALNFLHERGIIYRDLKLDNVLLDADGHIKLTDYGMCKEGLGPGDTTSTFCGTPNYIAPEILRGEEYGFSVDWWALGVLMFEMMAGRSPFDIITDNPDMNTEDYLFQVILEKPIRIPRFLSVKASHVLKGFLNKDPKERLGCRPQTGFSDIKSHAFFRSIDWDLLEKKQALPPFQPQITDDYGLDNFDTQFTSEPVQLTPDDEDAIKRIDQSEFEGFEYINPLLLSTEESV
Protocol: (§1) For example, to measure inhibition of conventional PKCγ, novel PKCδ, and atypical PKCζ, the same kinase assay disclosed above for PKCε can be used with recombinant human PKCγ, PKCδ, or PKCζ purchased from Invitrogen (Carlsbad, CA, USA) in place of PKCs, with 0.4 mM CaCl2 assay buffer for PKCγ.
(§2) The specificity of the compounds disclosed herein for inhibition of PKCε can be determined by examining their ability to inhibit ROCK1 and selected members of each PKC subfamily according to the protocols of the counter-screening assay for selectivity disclosed herein. This assay can be performed according to the biochemical assay for PKCε described above with some modifications. Rather than varying the concentrations of the inhibitors, only 10µM of each compound can be used.

PKCε [1] = target: T2, PKCε (Homo sapiens, UniProt Q02156); assay: FRET based LANCE Ultra kinase assay; assay type: biochemical
T2 sequence (Q02156 1-737): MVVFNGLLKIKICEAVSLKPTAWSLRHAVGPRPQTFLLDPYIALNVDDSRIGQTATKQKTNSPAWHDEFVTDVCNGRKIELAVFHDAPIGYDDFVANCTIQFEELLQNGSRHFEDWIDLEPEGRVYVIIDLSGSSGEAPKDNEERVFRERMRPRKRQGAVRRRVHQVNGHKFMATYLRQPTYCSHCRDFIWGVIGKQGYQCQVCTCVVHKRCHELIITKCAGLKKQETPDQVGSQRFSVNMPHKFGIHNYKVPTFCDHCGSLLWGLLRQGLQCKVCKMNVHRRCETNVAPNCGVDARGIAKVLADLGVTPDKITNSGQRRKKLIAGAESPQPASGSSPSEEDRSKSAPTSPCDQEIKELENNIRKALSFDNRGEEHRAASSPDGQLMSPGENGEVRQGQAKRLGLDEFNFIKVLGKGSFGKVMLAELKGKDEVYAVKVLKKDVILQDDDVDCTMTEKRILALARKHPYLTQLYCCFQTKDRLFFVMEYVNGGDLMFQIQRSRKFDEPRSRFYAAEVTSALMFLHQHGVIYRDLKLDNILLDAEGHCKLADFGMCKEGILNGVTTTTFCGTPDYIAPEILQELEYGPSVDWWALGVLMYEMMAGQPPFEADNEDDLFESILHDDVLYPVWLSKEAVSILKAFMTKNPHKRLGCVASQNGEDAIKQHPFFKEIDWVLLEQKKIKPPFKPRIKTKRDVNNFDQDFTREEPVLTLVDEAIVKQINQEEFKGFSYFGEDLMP
Protocol: Certain compounds of this invention were tested in the captioned assay.

PKCγ = target: T3, PKCγ (Homo sapiens, UniProt P05129); assay: Inhibition of conventional PKCγ (Example 4); assay type: biochemical; conditions: for inhibition of conventional PKCγ: at 10 µM, result in words
T3 construct: purchased Invitrogen (Carlsbad, CA, USA)
Protocol: as §1, §2

PKCδ = target: T4, PKCδ (Homo sapiens, UniProt Q05655); assay: Inhibition of novel PKCδ (Example 4); assay type: biochemical
T4 construct: purchased Invitrogen (Carlsbad, CA, USA)
Protocol: as §1, §2

PKCε [2] = target: T2, PKCε; assay: Cell-based assay for PKCε modulation of GABAA receptors (γ2 S327 phosphorylation, ELISA format); conditions: HEK293 cell line expressing α1β2γ2 GABAA receptors and over-expressing PKCε; anti-γ2S(P)327 ELISA
Protocol: PKCε inhibition can also be measured by assaying benzodiazepine modulation of GABAA receptors in intact cells. PKCε decreases benzodiazepine potency at GABAA receptors by phosphorylating S327 of GABAA y2 subunits. The GABAA cell-based assay uses a HEK293 cell line that expresses α1β2γ2 GABAA receptors and over-expresses PKCε. […] This 6-fold difference in benzodiazepine potency can be detected without addition of a PKC activator. The assay is performed using an anti-phospho antibody that recognizes γ2S(P)327 in an ELISA format to generate 8 point dose-response curves for each compound. Background values, detected from wells in which no primary antibody was added, are subtracted from sample values. Maximal phosphorylation (positive control) is detected in reactions containing phorbol ester and lacking an inhibitor.

PKCε [3] = target: T2, PKCε; assay: Primary PKCε phosphotransferase assay; assay type: biochemical; design: FLAG; made in house; host or cells: COS-7 cells; conditions: log of molar IC50
Protocol: The assay mixture can contain 2 ng FLAG-tagged human PKCε expressed and purified from COS-7 cells in 25 µl kinase buffer containing 20 mM Tris-HCI, pH 7.4, 0.25 mM EGTA, 0.1 mg/ml BSA, 0.72% TritonX-100, 10 mM MgCl2, 0.48 µg/µl L-α-phosphatidylserine (PS) and 0.107 µg/µl sn-1,2-dioleoylglecerol (DG) (Avanti Polar Lipids, Alabaster, AL, USA), 2 µM K(Biotin)-[…], 2.5 µM ATP and 0.05 µCi [^32γ-P]ATP. After incubation at 27 °C for 90 min, the reaction is terminated by adding 12.5 µl of 7.5 M of guanidine hydrochloride. Eight microliters of reaction mixture is spotted onto a pre-cut streptavidin-coated SAM Biotin Capture membrane. […] The membrane is then air dried at room temperature for 60 min and radioactivity remaining on the membrane can be measured by liquid scintillation counting. Specific PKCε activity can then be calculated as the difference between cpms detected in the presence and absence of lipids (PS and DG). Maximal PKCε activity (positive control) can be detected in reactions lacking an inhibitor. […]
IC50 values can be calculated from normalized dose-response curves by nonlinear regression analysis.
The ability of the compounds disclosed herein to inhibit PKCε can be assessed using the primary PKCε assay described above using the biotinylated substrate […]. […]

PKCε [4] = target: T2, PKCε; assay: Inhibition of PKCε (Example 4); assay type: biochemical
PKCθ = target: T5, PKCθ (Homo sapiens, UniProt Q04759); assay: Inhibition of novel PKCθ (Example 4); assay type: biochemical
T5 construct: purchased Invitrogen P2996
Text: Inhibition of PKC theta activity can be measured using the same primary phosphotransferase assay for PKCε except one substitutes recombinant human PKC theta purchased from Invitrogen for PKCε. PKC theta can also be assayed with a fluorescence polarization (FP) assay using the commercially available Protein Kinase C Assay Kit, Red, from Invitrogen (Product ID No P2941), essentially in accordance with the protocol supplied by the manufacturer. The substrate used is […] (Mw 1561), which can be obtained from Invitrogen (Product ID No P2760). The isozyme PKC theta can be obtained from Invitrogen (Product ID No P2996).
as §2

C57BL/6 mice = assay: Ethanol-induced loss of righting reflex (LORR) in vivo; conditions: 10 mg/kg i.p.
Protocol: Compound 1 was administered (10 mg/kg) i.p. to C57BL/6 mice, which were administered 20 min later 3.6 g/kg ethanol i.p. to induce loss of righting. […] These findings indicate that this class of compounds can cross the blood-brain barrier and act as a PKCε inhibitor, and prolong the duration of the LORR in the treated animals. Such increased signs of ethanol intoxication are contemplated to be aversive and to limit ethanol self-administration.

[5] = log of molar IC50, read-out: Log IC50 (converted)

T5 sequence (Q04759 whole entry): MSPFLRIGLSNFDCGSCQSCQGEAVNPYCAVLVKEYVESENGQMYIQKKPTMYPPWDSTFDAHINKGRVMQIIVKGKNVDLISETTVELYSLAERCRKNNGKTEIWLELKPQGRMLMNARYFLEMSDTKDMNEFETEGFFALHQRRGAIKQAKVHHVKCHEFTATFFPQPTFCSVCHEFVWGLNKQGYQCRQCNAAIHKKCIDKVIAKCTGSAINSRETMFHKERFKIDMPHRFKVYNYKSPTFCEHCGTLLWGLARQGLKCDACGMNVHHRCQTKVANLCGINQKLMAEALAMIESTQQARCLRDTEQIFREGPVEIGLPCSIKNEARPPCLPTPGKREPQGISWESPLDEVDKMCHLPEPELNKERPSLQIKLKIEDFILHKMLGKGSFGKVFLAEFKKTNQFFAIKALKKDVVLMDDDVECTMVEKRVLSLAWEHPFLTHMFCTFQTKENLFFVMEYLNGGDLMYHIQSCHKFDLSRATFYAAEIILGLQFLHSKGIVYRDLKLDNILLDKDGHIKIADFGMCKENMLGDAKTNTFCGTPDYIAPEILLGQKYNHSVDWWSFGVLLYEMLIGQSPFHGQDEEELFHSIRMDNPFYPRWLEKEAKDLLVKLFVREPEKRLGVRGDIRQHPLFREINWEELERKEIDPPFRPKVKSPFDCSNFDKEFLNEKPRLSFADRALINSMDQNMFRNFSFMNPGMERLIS
T4 sequence (Q05655 whole entry): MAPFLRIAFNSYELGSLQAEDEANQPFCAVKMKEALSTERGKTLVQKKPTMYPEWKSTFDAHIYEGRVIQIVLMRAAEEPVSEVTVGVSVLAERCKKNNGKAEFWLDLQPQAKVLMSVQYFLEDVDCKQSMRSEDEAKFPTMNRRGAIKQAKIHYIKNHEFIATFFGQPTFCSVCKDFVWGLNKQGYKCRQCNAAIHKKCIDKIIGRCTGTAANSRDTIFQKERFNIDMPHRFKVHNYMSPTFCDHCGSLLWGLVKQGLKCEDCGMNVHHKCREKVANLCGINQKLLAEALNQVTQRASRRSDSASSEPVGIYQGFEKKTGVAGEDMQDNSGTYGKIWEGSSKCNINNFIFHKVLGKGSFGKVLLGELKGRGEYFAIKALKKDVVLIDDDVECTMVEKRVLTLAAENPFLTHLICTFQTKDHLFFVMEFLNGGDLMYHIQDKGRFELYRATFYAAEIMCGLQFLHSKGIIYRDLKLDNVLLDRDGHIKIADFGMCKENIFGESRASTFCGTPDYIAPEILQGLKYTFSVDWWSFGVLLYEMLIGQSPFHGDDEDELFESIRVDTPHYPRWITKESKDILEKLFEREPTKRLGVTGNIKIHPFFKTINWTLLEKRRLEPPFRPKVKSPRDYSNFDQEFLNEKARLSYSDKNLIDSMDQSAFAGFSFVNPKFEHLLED

Compound: CC(C)(C(=O)NCC(N)[C@H]1CC[C@H](C(=O)Nc2ccncc2)CC1)c1ccc(Cl)cc1 (stereo partly drawn) [Compound 9]
activity against atypical PKCζ (PKCζ): almost no activity | Log IC50 (PKCε [1]; log of molar IC50): -7.398 | IC50 (PKCε [1]; read-out: IC50): 40 nM | inhibition of conventional PKCγ (PKCγ): inhibited

Compound: NC(C(=O)N[C@@H]1CCCc2ccccc21)[C@H]1CC[C@H](C(=O)Nc2ccncc2)CC1 (stereo partly drawn) [Compound 11]
IC50 (PKCε [1]; [5]): 3090 nM | IC50 (PKCε [1]; read-out: IC50): 3090 nM

inhibition at 10 µM (PKCδ; 10 µM inhibitor, n=3, read-out: Percent inhibition of PKC activity, Novel PKCδ): 96.3 ± 0.7% | Ki (PKCδ; n=3): 173 nM | IC50 (PKCδ; read-out: PKCδ Log IC50 (converted)): 708 nM | IC50 (PKCε [2]): 8.9 nM | IC50 (PKCε [3]): 131 nM | inhibition at 10 µM (PKCζ; 10 µM inhibitor, n=3, read-out: Percent inhibition of PKC activity, Atypical PKCζ): 55.9 ± 3.8% | Ki (PKCε [4]; PKCε, read-out: Ki): < 20 nM | Ki (PKCε [4]; n=3, read-out: PKCε Ki): 17 nM | IC50 (PKCε [4]; read-out: PKCε Log IC50 (converted)): 55 nM | IC50 (PKCε [1]; read-out: IC50): 56.6 nM | inhibition at 10 µM (PKCγ; 10 µM inhibitor, n=3, read-out: Percent inhibition of PKC activity, Conventional PKCγ): 16.7 ± 3.8% | inhibition of conventional PKCγ (PKCγ): inhibited | inhibition at 10 µM (PKCθ; 10 µM inhibitor, n=3, read-out: Percent inhibition of PKC activity, Novel PKCθ): 96.9 ± 1.1% | Ki (PKCθ; n=3): 91.7 nM | IC50 (PKCθ; read-out: PKCθ Log IC50 (converted)): 372 nM
Compound: NC(CNC(=O)C1(c2ccc(Cl)cc2)CC1)[C@H]1CC[C@H](C(=O)Nc2ccncc2)CC1 (relative stereo) [Compound 1, trans-4-[1-Amino-2-[[[1-(4-chlorophenyl)cyclopropyl]carbonyl]amino]ethyl]-N-4-pyridinyl-cyclohexylcarboxamide]
increase of LORR duration (C57BL/6 mice; 20 min before 3.6 g/kg ethanol i.p., versus vehicle-treated mice, p = 0.036): 45% | LORR duration (C57BL/6 mice; drug-treated mice (n=10), 3.6 g/kg ethanol i.p., vehicle 31.4 ± 4.9 (n=8)): 45.7 ± 4.0

Compound: NC(CNC(=O)C1(c2ccc(F)cc2)CC1)[C@H]1CC[C@H](C(=O)Nc2ccncc2)CC1 (stereo partly drawn) [Compound 3]
Log IC50 (PKCε [1]; log of molar IC50): -6.835 | IC50 (PKCε [1]; read-out: IC50): 146 nM

Compound: NC(CNC(=O)C1CCc2cc(Cl)ccc21)[C@H]1CC[C@H](C(=O)Nc2ccncc2)CC1 (stereo partly drawn) [Compound 8]
Log IC50 (PKCε [1]; log of molar IC50): -6.445 | IC50 (PKCε [1]; read-out: IC50): 359 nM

Compound: NC(C(=O)NCc1ccc(F)cc1)[C@H]1CC[C@H](C(=O)Nc2ccncc2)CC1 (stereo partly drawn) [Compound 12]
Log IC50 (PKCε [1]; log of molar IC50): -5.625 | IC50 (PKCε [1]; read-out: IC50): 2370 nM

Compound: NC(C(=O)NC1COc2ccccc21)[C@H]1CC[C@H](C(=O)Nc2ccncc2)CC1 (stereo partly drawn) [Compound 10]
Log IC50 (PKCε [1]; log of molar IC50): -5.695 | IC50 (PKCε [1]; read-out: IC50): 2020 nM

Compound: NC(C(=O)NCC1(c2ccc(Cl)cc2)CC1)[C@H]1CC[C@H](C(=O)Nc2ccncc2)CC1 (stereo partly drawn) [Compound 2]
IC50 (PKCε [3]): 1690 nM | IC50 (PKCε [1]; [5]): 3240 nM

Compound: CC(C)(C(=O)NCC(N)[C@H]1CC[C@H](C(=O)Nc2ccncc2)CC1)c1cccs1 (stereo partly drawn) [Compound 7]
Log IC50 (PKCε [1]; log of molar IC50): -6.553 | IC50 (PKCε [1]; read-out: IC50): 280 nM

Compound: NC(CNC(=O)C1(c2ccc(F)cc2Cl)CCCC1)[C@H]1CC[C@H](C(=O)Nc2ccncc2)CC1 (stereo partly drawn) [Compound 4]
Log IC50 (PKCε [1]; log of molar IC50): -6.917 | IC50 (PKCε [1]; read-out: IC50): 121 nM

Compound: NC(CNC(=O)C1(c2ccc(F)c(F)c2)CC1)[C@H]1CC[C@H](C(=O)Nc2ccncc2)CC1 (stereo partly drawn) [Compound 6]
Log IC50 (PKCε [1]; log of molar IC50): -7.282

Compound: NC(CNC(=O)C1(c2ccc(F)cc2)CCCC1)[C@H]1CC[C@H](C(=O)Nc2ccncc2)CC1 (stereo partly drawn) [Compound 5]
activity against atypical PKCζ (PKCζ): almost no activity | PKCε Log IC50(M) (PKCε [4]; log IC50 ± SE, n=3): -7.37 ± 0.03 M | Log IC50 (PKCε [1]; log of molar IC50): -7.370 | inhibition of conventional PKCγ (PKCγ): inhibited
